Converted amounts (≈) assume the structure as drawn.
Key:
Assay type in all cases: functional
Enterococcus faecalis = assay: Minimum inhibitory concentration in vitro against Enterococcus faecalis LS-101
Escherichia coli = assay: Minimum inhibitory concentration in vitro against Escherichia coli NIHJ JC-2
Staphylococcus aureus [1] = assay: Minimum inhibitory concentration vitro against Staphylococcus aureus No.88
Streptococcus pneumoniae = assay: Minimum inhibitory concentration in vitro against Streptococcus pneumoniae Type III
Staphylococcus aureus [2] = assay: Minimum inhibitory concentration in vitro against Staphylococcus aureus FDA 209P

Row | SMILES | MIC (Enterococcus faecalis) | MIC (Escherichia coli) | MIC (Staphylococcus aureus [1]) | MIC (Streptococcus pneumoniae) | MIC (Staphylococcus aureus [2])
1 | COc1c(N2CCC(CN)(CO)C2)c(F)cc2c(=O)c(C(=O)O)cn(C3CC3)c12 (stereo not drawn) | 0.2 mg/L (≈ 0.493 µM) | 0.78 mg/L (≈ 1.92 µM) | 50 mg/L (≈ 123 µM) | 0.39 mg/L (≈ 0.962 µM) | 0.1 mg/L (≈ 0.247 µM)
2 | COc1c(N2CCC(CN)(CF)C2)c(F)cc2c(=O)c(C(=O)O)cn(C3CC3)c12 (stereo not drawn) | 0.05 mg/L (≈ 0.123 µM) | 0.05 mg/L (≈ 0.123 µM) | 1.56 mg/L (≈ 3.83 µM) | 0.05 mg/L (≈ 0.123 µM) | 0.012 mg/L (≈ 0.0295 µM)
3 | COc1c(N2CCC(O)(CN)C2)c(F)cc2c(=O)c(C(=O)O)cn(C3CC3)c12 (stereo not drawn) | 0.2 mg/L (≈ 0.511 µM) | 0.39 mg/L (≈ 0.996 µM) | 50 mg/L (≈ 128 µM) | 0.2 mg/L (≈ 0.511 µM) | 0.1 mg/L (≈ 0.255 µM)
4 | COc1c(N2CC[C@@](CN)(CF)C2)c(F)cc2c(=O)c(C(=O)O)cn(C3CC3)c12 | 0.05 mg/L (≈ 0.123 µM) | 0.05 mg/L (≈ 0.123 µM) | 0.78 mg/L (≈ 1.91 µM) | 0.05 mg/L (≈ 0.123 µM) | 0.012 mg/L (≈ 0.0295 µM)
5 | COc1c(N2CCOC(CN)C2)c(F)cc2c(=O)c(C(=O)O)cn(C3CC3)c12 (stereo not drawn) | 0.05 mg/L (≈ 0.128 µM) | 0.2 mg/L (≈ 0.511 µM) | 6.25 mg/L (≈ 16 µM) | 0.2 mg/L (≈ 0.511 µM) | 0.025 mg/L (≈ 0.0639 µM)
6 | NCC1CN(c2cc3c(cc2F)c(=O)c(C(=O)O)cn3C2CC2)CCO1 (stereo not drawn) |  | 0.39 mg/L (≈ 1.08 µM) |  | 0.39 mg/L (≈ 1.08 µM) | 0.2 mg/L (≈ 0.553 µM)
7 | COc1c(N2CCC(C)(CN)C2)c(F)cc2c(=O)c(C(=O)O)cn(C3CC3)c12 (stereo not drawn) | 0.05 mg/L (≈ 0.128 µM) | 0.1 mg/L (≈ 0.257 µM) | 1.56 mg/L (≈ 4.01 µM) | 0.05 mg/L (≈ 0.128 µM) | 0.012 mg/L (≈ 0.0308 µM)
8 | NCC1CN(c2c(F)cc3c(=O)c(C(=O)O)cn(C4CC4)c3c2Cl)CCO1 (stereo not drawn) |  | 0.1 mg/L (≈ 0.253 µM) |  | 0.1 mg/L (≈ 0.253 µM) | 0.012 mg/L (≈ 0.0303 µM)
9 | NCC1CN(c2c(F)cc3c(=O)c(C(=O)O)cn(C4CC4)c3c2F)CCO1 (stereo not drawn) |  | 0.1 mg/L (≈ 0.264 µM) |  | 0.1 mg/L (≈ 0.264 µM) | 0.025 mg/L (≈ 0.0659 µM)
10 | CNCC1(CF)CCN(c2c(F)cc3c(=O)c(C(=O)O)cn(C4CC4)c3c2OC)C1 (stereo not drawn) | 0.05 mg/L (≈ 0.119 µM) | 0.1 mg/L (≈ 0.237 µM) | 1.56 mg/L (≈ 3.7 µM) | 0.2 mg/L (≈ 0.475 µM) | 0.025 mg/L (≈ 0.0593 µM)
11 | COc1c(N2CC[C@](CN)(CF)C2)c(F)cc2c(=O)c(C(=O)O)cn(C3CC3)c12 | 0.05 mg/L (≈ 0.123 µM) | 0.05 mg/L (≈ 0.123 µM) | 3.13 mg/L (≈ 7.68 µM) | 0.05 mg/L (≈ 0.123 µM) | 0.012 mg/L (≈ 0.0295 µM)
12 | COc1c(N2CCC(CF)(CN(C)C)C2)c(F)cc2c(=O)c(C(=O)O)cn(C3CC3)c12 (stereo not drawn) | 0.2 mg/L (≈ 0.459 µM) | 0.39 mg/L (≈ 0.896 µM) | 6.25 mg/L (≈ 14.4 µM) | 0.2 mg/L (≈ 0.459 µM) | 0.1 mg/L (≈ 0.23 µM)
13 | O=C(O)c1cn(C2CC2)c2cc(N3CCNCC3)c(F)cc2c1=O [CIPROFLOXACIN] | 0.2 mg/L (≈ 0.604 µM) |  | > 100 mg/L | 0.39 mg/L (≈ 1.18 µM) | 0.2 mg/L (≈ 0.604 µM)
14 | CC1COc2c(N3CCN(C)CC3)c(F)cc3c(=O)c(C(=O)O)cn1c23 (stereo not drawn) [OFLOXACIN] | 0.39 mg/L (≈ 1.08 µM) | 0.05 mg/L (≈ 0.138 µM) | 50 mg/L (≈ 138 µM) | 0.78 mg/L (≈ 2.16 µM) | 0.2 mg/L (≈ 0.553 µM)
15 | C[C@@H]1CN(c2c(F)c(N)c3c(=O)c(C(=O)O)cn(C4CC4)c3c2F)C[C@H](C)N1 [SPARFLOXACIN] | 0.1 mg/L (≈ 0.255 µM) | 0.025 mg/L (≈ 0.0637 µM) | 12.5 mg/L (≈ 31.9 µM) | 0.1 mg/L (≈ 0.255 µM) | 0.05 mg/L (≈ 0.127 µM)
16 | NC1CCN(c2nc3c(cc2F)c(=O)c(C(=O)O)cn3-c2ccc(F)cc2F)C1 (stereo not drawn) [TOSUFLOXACIN] | 0.05 mg/L (≈ 0.124 µM) | 0.025 mg/L (≈ 0.0618 µM) | > 25 mg/L | 0.1 mg/L (≈ 0.247 µM) | 0.025 mg/L (≈ 0.0618 µM)

Source: ChEMBL document CHEMBL1129851, “Synthesis and structural optimization of 7-(3,3-disubstituted-1-pyrrolidinyl)-1-cyclopropyl-6-fluoro-1,4-dihydro-8-methoxy-4-oxo-3-quinolinecarboxylic acids as antibacterial agents” (1997)
